In paper PMC12264943, “Identification of New Human P2X7 Antagonists Using Ligand- and Structure-Based Virtual Screening” (Journal of Chemical Information and Modeling, 2025):

Target: T1, hP2X7 (Homo sapiens, UniProt Q99572)
T1 construct: expressed in transfected cells; host or cells: HEK-293, stably transfected (gift of E. Adinolfi's group, Ferrara University)
T1 sequence (Q99572 1-595): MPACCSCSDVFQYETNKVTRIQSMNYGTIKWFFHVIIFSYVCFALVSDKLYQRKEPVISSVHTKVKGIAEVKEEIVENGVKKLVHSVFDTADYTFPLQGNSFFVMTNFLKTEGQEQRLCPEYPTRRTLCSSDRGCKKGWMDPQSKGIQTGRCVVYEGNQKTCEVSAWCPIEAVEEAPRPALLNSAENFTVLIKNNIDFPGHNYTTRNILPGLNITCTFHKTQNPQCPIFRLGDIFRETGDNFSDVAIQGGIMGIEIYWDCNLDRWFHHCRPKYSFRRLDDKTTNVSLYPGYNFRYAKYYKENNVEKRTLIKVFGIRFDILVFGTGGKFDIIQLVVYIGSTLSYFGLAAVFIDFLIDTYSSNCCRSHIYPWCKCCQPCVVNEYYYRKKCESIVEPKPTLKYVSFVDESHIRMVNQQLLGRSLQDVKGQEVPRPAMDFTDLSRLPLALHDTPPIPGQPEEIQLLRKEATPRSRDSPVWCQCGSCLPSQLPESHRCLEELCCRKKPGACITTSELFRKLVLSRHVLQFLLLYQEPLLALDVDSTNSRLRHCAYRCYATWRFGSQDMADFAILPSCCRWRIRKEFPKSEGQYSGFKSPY
Experiment: YO-PRO 1 dye uptake assay, 1321 N1 cells stably transfected with hP2X7
Type: cell-based
Settings: for activity in YO-PRO 1 dye uptake screen / reduction of P2X7 activation: compound 30 μM, 700 μM ATP; for reduction of P2X7 activation: 0.3% DMSO
Procedure: Astrocytoma 1321 N1 (established by Dr. Gaia Pasqualetto) and HEK-293 (kindly gifted by E. Adinolfi’s group, Ferrara University) both stably transfected with hP2X7, were used to assess the activity of the small molecules selected from the VS. Cells were maintained in DMEM:F12 (PanBiotech) supplemented with 10% FBS, 1% pen-strep, and 150 μg/mL G418 (PanBiotech).
Astrocytoma 1321 N1 cells (2–2.5 × 10^4 cells/well) and HEK-293 cells (4–5 × 10^4 cells/well) expressing hP2X7 were seeded in poly-L-lysine-coated 96-well plates (Sarstedt) 24 h before the experiment. YO-PRO 1 dye was prepared at 5 μM in extracellular solution with low divalent cations (ECS-LD) buffer (147 mM NaCl, 10 mM HEPES, 13 mM glucose, 0.2 mM CaCl2, 2 mM KCl, pH 7.4) and added to cells after washing them with Dulbecco’s phosphate- buffered saline (DPBS) (PanBiotech) and incubated for 20 min at 37 °C. ATP-induced dye uptake, mediated by hP2X7 activation, was monitored using a Clariostar plate reader (excitation: 485 nm; emission: 538 nm) for 30 cycles (75–150 s/cycle), after recording the baseline for five cycles. hP2X7 activation was quantified at cycle 10 by calculating the fluorescence intensity (FI) ratio (Δ(Fcycle 10–F cycle 1)/cycle time).
The P2X7 receptor, besides being a ligand-gated ion channel, forms large membrane pores following prolonged exposure to high concentrations of ATP, leading to apoptosis (Mackenzie et al. 2005). The YO-PRO 1 dye uptake assay, which measures dye influx through these pores, was selected as the primary screen. The fluorescence of YO-PRO 1 increases when it binds to DNA, enabling real-time monitoring of P2X7 activation (calculated as the rate of increase in fluorescence as YO-PRO 1 binds nuclear DNA).
The screening compounds were tested at 30 μM (0.3% DMSO) in 5 μM YO-PRO 1 dye diluted in freshly prepared ECS-LD buffer. Cells pretreated with the screening compounds were challenged with 700 μM ATP, and the fluorescence intensities were recorded. The negative control consisted of cells treated with 0.3% DMSO, while the positive control was 0.1 μM JNJ47965567, a selective P2X7 antagonist. ,
2 Initial screening assays to identify hit compounds. (A) The compounds were screened at 30 μM in the YO-PRO 1 dye uptake using 1321 N1 cells stably transfected with hP2X7. Compound activity was evaluated along a time of 20 min (75 s per cycle) after ATP addition (700 μM). The fluorescence intensity (FI) values of the first 10 cycles were considered for assessing their ability to inhibit hP2X7. Compound responses were normalized to the fluorescent signal recorded on 0.3% DMSO cells treated with 700 μM ATP of each plate. […] (B) Compounds screened at 10 μM using MPR using 1321 N1 cells stably transfected with hP2X7. The compound activity was evaluated for 5 min after ATP addition (15 s per cycle). The fluorescence intensity recorded in the first cycles (before reaching a plateau response) was considered for assessing the small molecule’s ability to inhibit hP2X7. Compound responses were normalized to the fluorescence signal recorded on 0.1% DMSO cells treated with 700 μM ATP of each plate. […] One-way ANOVA and Dunnet test were used for statistical analysis (****P < 0.0001), (*P < 0.02).

## Nc1ncnc2c1ncn2[C@@H]1O[C@H](COP(=O)(O)OP(=O)(O)OP(=O)(O)O)[C@@H](O)[C@H]1O [ATP, reference compound]
YO-PRO 1 uptake, 1321 N1 hP2X7 cells
  Hill Slope of ATP concentration-response curve: 1.161
YO-PRO 1 uptake, 1321 N1 hP2X7 cells, ATP 1 μM to 10 mM
  EC50: 697 ± 203 µM

## O=C(NCCc1ccccc1)NC(Cc1ccc2c(c1)OCO2)Cc1ccc2c(c1)OCO2 [Compound 2]
  activity in YO-PRO 1 dye uptake screen: antagonist activity
  reduction of P2X7 activation: at least 50%

## O=C(CSc1ccccc1C(=O)Nc1ccnn1Cc1cccnc1)Nc1ccc2c(c1)OCO2 [Compound 9]
  activity in YO-PRO 1 dye uptake screen: antagonist activity
  reduction of P2X7 activation: at least 50%
